Measured values as given in patent US20010014454A1, “NOVEL METAL COMPLEXES” (priority 2000, published 2001).

B1: recombinant G-CSF: the natural ligand (i.e. G-CSF or recombinant G-CSF) of the G-CSF receptor (protein, UniProt P09919 31-207, looked up)
Granulocyte …: TPLGPASSLPQSFLLKCLEQVRKIQGDGAALQEKLVSECATYKLCHPEELVLLGHSLGIPWAPLSSCPSQALQLAGCLSQLHSGLFLYQGLLQALEGISPELGPTLDTLQLDVADFATTIWQQMEELGMAPALQPTQGAMPAFASAFQRRAGGVLVASHLQSFLEVSYRVLRHLAQP

Legend:
G-CSF receptor [1] = molecular target: T1, G-CSF receptor (Mus musculus, UniProt P40223); test: Luciferase reporter gene assay in G-CSF-responsive NFS60 cells; assay type: cell-based, murine; conditions: absence of zinc
T1 construct: they express endogenous G-CSF receptors; endogenous in cells; host or cells: NFS60 murine myeloid cells with a G-CSF-responsive luciferase reporter
T1 sequence (P40223 26-837): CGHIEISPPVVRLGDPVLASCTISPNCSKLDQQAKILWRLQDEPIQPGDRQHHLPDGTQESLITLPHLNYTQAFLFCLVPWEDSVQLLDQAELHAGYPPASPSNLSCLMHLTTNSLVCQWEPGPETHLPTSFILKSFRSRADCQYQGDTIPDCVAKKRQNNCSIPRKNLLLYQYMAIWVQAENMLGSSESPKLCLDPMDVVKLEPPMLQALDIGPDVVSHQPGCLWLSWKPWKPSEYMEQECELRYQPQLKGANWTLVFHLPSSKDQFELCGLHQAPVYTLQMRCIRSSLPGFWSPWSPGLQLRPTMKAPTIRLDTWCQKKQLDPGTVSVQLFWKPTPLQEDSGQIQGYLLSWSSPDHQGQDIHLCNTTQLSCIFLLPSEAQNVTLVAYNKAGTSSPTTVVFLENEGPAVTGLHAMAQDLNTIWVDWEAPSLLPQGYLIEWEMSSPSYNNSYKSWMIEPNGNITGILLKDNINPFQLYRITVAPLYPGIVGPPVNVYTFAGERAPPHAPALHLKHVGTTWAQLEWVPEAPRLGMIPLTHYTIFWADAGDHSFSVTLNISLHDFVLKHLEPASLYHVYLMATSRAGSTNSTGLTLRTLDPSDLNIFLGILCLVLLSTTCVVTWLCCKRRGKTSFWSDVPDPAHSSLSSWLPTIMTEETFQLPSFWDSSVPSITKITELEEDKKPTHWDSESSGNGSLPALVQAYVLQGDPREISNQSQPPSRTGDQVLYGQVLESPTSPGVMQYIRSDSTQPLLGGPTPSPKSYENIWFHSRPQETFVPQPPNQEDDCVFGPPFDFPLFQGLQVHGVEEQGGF
Experimental: Activity of compound 1a is below the threshold of 150% over background. The study was performed as a Luciferase assay configured on the G-CSF-responsive NFS60 cell line as described in Tian et al., Science 281, 257-259 (1998). The experiments shown in FIGS. 2-8 used the same NFS60 cell line.
Compounds of the present invention are tested for potency as agonist of a dimeric cell-surface receptor in a Luciferase reporter gene assay such as described in Tian et al., Science 281. 257-259 (1998). For example, for G-CSF NFS60 cells (Holmes, et al., Proc. Natl. Acad. Sci. USA 82: 6687-6691 (1985)) are selected because they express endogenous G-CSF receptors closely matching the pattern of STAT (signal transducers and activators of transcription) activation observed in primary murine and human bone marrow cells.

[2] = system: peripheral blood neutrophil and monocyte count; test: In vivo evaluation of peripheral blood neutrophil and monocyte count in the mouse
Experimental: Compounds of this invention are also tested for activity in the following assays: CFU-G assay (an example of which is described in King A G, Talmadge J., Badger A M, Pelus L M. Regulation of colony stimulating activity production from bone marrow stromal cells by the hematoregulatory peptide, HP-5. Exp. Hematol. 20:223-228, 1992) and in vivo evaluation of peripheral blood neutrophil and monocyte count in the mouse (an example of which is described in Pelus, L. M.; King, A. G.; Broxmeyer, H. E.; DeMarsh, P. L.; Petteway, S. R.; Bhatnagar, P. K., In vivo modulation of hematopoiesis by a novel hematoregulatory peptide Exp-Hematol. 1994 22(3): 239-47). In order to confirm the requirement for zinc(II) chelation, the above CFU-G assay was also conducted in the presence of EDTA.

G-CSF receptor [3] = molecular target: T1, G-CSF receptor; test: Luciferase assay and EDTA (NFS60 cells, with or without metal chlorides); assay type: cell-based, murine; conditions: for agonist activity in the presence of EDTA: in the presence of EDTA (FIGS. 3 and 4)
Experimental: FIG. 3 is an analysis of the effect of ethylenediaminetetraacetic acid (as used herein—EDTA) on the activity of Compound 1a (from Example 1) in NFS60 cells. Shown are luciferase response curves of Compound 1a at the indicated concentrations and in the presence of various concentrations of EDTA. […] The media in this assay contained a small amount (1-5 uM) of zinc(II).
FIGS. 7 and 8 show an analysis of the effect of metal chlorides on the EDTA depleted activity of Compound 1a on NFS60 cells. Shown are luciferase response curves as effected by the indicated metal chlorides. […] None of the other metals tested could overcome the inhibitory effect of EDTA.
In order to determine the requisiteness of zinc chelation of small organic molecules to agonist activity at dimeric cell-surface receptors, the above luciferase assay was performed on the G-CSF receptor in the presence of EDTA. EDTA is a strong metal chelator and had as it only effect, the removal of zinc from the ligand-receptor interaction.

G-CSF/Fc fusion protein = test: Isothermal titration microcalorimetry; assay type: binding; conditions: in the presence of zinc
Experimental: Zinc-mediated affinity of compounds from this invention for dimeric cell-surface receptors (specifically the G-CSF receptor) was measured by isothermal titration microcalorimetry experiments. Titration microcalorimetry detects binding as heat originating from the intrinsic bond forming enthalpy change. In this assay, the compounds were titrated first against zinc(II) alone. In a separate experiment, the compounds were then assayed in the presence of zinc and a dimeric cell-surface receptor/Fc fusion protein (a G-CSF/Fc fusion protein), which contained the extracellular domain of the receptor presented in a dimeric form due to the Fc component.

Molecule	luciferase activity over background (G-CSF receptor [1])	peripheral blood neutrophil and monocyte count [2]	effect of metal chlorides on the EDTA depleted luciferase activity (G-CSF receptor [3]; Compound 1a, 50 micromolar EDTA, plus metal chlorides)	effect of EDTA on luciferase activity (G-CSF receptor [3]; EDTA at 1.2 millimolar, media contained 1-5 uM zinc(II))	agonist activity in the presence of EDTA (G-CSF receptor [3])	affinity for the fusion protein construct (G-CSF/Fc fusion protein)	effect of EDTA on luciferase activity (G-CSF receptor [3]; EDTA at both 1.2 and 5 millimolar)
c1ccc(C23NC(=Nc4nc5ccccc5[nH]4)NC2(c2ccccn2)NC(=Nc2nc4ccccc4[nH]2)N3)nc1 (stereo not shown) [Compound 1a, 2,5-Bis[2-benzimidazolylimino]-3a,6a-bis(2-pyridyl)-1,2,3,3a,4,5,6,6a-octahydroimidazo[4,5-d]imidazole]	< 150%	elevation	Only zinc (II) at concentrations 0.5-10 micromolar can overcome the inhibition	antagonized	abrogated	submicromolar	–
Cc1ccc2nc(N=C3NC4(c5ccccn5)NC(=Nc5nc6ccccc6[nH]5)NC4(c4ccccn4)N3)[nH]c2c1.O=C(O)C(F)(F)F.O=C(O)C(F)(F)F (stereo not shown) [Compound 3a, 5-(2-benzimidazolylimino)-2-[(5-methyl-2-benzimidazolyl)imino]-3a,6a-bis(2-pyridyl)-1,2,3,3a,4,5,6,6a-octahydroimidazo[4,5-d]imidazole bis(trifluoroacetate) salt]	–	elevation	–	–	–	submicromolar	–
B1	–	–	–	–	not mediated by metal ions	–	little effect
